Results reported in EP3478687B1 (Daewoong Pharmaceutical Co., Ltd., priority 2016, dated 2018).

Legend:
[1] = molecular target: T1, Recombinant purified human JAK3 (Homo sapiens, UniProt P52333); experiment: JAK3 kinase inhibitory activity, ADP-Glo kinase assay (Promega V9441); assay type: biochemical; details: ATP 5 uM, 4 ng JAK3 per reaction, 1 hour 30 °C, chemiluminescence
T1 construct: purchased Promega V9441
T1 sequence (P52333 1-1124): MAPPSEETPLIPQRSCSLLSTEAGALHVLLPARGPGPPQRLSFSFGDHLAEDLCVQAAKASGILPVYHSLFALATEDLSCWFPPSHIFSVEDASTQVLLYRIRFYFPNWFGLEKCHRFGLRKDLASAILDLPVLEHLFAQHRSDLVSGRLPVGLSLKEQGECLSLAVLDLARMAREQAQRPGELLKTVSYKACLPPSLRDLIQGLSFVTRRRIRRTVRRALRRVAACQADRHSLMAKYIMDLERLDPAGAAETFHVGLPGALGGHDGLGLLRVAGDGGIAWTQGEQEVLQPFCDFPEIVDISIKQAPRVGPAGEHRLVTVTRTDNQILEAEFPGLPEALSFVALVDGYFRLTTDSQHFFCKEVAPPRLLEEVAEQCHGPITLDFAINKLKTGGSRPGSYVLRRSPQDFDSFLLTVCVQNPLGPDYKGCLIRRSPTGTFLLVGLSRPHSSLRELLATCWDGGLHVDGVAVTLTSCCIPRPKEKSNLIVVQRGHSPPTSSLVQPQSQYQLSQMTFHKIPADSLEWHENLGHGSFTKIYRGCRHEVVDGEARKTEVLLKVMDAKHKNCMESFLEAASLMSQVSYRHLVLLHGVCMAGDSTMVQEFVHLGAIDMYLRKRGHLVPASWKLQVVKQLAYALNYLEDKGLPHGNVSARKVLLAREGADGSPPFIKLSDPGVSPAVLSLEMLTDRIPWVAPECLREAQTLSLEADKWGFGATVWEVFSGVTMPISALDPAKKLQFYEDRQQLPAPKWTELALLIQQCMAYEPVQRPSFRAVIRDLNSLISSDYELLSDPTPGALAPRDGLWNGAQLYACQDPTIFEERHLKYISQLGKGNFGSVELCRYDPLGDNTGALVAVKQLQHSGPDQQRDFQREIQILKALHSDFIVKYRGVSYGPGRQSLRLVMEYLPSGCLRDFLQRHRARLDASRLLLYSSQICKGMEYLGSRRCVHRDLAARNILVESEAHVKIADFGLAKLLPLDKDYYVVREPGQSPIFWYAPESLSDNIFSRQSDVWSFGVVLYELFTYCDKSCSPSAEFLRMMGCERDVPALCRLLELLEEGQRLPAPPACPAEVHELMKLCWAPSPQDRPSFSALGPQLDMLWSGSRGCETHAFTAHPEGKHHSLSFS
Outline: (§1)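 IC50 values come from ADP-Glo luminescence after 1 h kinase reactions at 30 °C in 1% DMSO on 0.2 µg/µL Poly(Glu4,Tyr1) substrate. ATP was 10 µM for BTK (8 ng, buffer containing MnCl2) and 5 µM for JAK3 (4 ng), in Tris-Cl pH 7.5/MgCl2/BSA/DTT.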

[2] = molecular target: T2, Recombinant purified human BTK (Homo sapiens, UniProt Q06187); experiment: BTK kinase inhibitory activity, ADP-Glo kinase assay (Promega V9071); assay type: biochemical; details: ATP 10 uM, 8 ng BTK per reaction, 1 hour 30 °C, chemiluminescence
T2 construct: purchased Promega V9071
Outline: as §1

T2 sequence (Q06187 whole entry): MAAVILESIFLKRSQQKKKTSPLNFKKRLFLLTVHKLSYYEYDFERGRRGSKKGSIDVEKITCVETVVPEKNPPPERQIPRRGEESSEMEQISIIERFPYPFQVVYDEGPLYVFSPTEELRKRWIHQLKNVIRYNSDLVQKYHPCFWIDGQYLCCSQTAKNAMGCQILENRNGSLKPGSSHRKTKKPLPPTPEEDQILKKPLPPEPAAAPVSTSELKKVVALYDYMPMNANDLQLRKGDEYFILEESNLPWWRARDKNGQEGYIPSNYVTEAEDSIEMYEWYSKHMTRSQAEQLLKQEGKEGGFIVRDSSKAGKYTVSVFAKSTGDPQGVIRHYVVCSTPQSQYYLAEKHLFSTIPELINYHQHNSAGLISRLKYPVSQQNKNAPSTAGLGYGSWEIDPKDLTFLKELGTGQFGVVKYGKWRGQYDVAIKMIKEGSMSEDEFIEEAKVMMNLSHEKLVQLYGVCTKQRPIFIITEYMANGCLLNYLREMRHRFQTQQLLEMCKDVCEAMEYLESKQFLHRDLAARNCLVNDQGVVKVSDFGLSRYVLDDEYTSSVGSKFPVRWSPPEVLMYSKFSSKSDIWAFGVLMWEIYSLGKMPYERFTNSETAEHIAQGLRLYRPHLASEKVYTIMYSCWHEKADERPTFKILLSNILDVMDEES

Structure (SMILES)	IC50 [1] [nM]	IC50 [2] [nM]
C=CC(=O)N1CCC[C@@H](Nc2nc(Nc3cnn(CC(C)C)c3)nc3[nH]nc(Cl)c23)C1 [Example 55, (R)-1-(3-(3-chloro-6-(1-isobutyl-1H-pyrazol-4-ylamino)-1H-pyrazolo [3,4-d]pyrimidin-4-ylamino)piperidin-1-yl)prop-2-en-1-one]	1.3	1.2
C=CC(=O)N1CCC[C@@H](Nc2nc(Nc3cnn(CC(F)(F)F)c3)nc3[nH]nc(Cl)c23)C1 [Example 56, (R)-1-(3-(3-chloro-6-(1-(2,2,2-trifluoroethyl)-1H-pyrazol-4-ylamino)-1H-pyrazolo[3,4-d]pyrimidin-4-ylamino)piperidin-1-yl)prop-2-en-1-one]	0.3	1.8
C=CC(=O)N1CCC[C@@H](Nc2nc(Nc3cnn(CCN(CC)CC)c3)nc3[nH]nc(Cl)c23)C1 [Example 57, (R)-1-(3-(3-chloro-6-(1-(2-(diethylamino)ethyl)-1H-pyrazol-4-ylamino)-1H-pyrazolo [3,4-d]pyrimidin-4-ylamino)piperidin-1-yl)prop-2-en-1-one]	0.4	1.8
C=CC(=O)N1CCC[C@@H](Nc2nc(Nc3cnn(Cc4cccc(OC)c4)c3)nc3[nH]nc(Cl)c23)C1 [Example 58, (R)-1-(3-(3-chloro-6-(1-(3-methoaybenzyl)-1H-pyrazol-4-ylamino)-1H-pyrazolo[3,4-d]pyrimidin-4-ylamino)piperidin-1-yl)prop-2-en-1-one]	0.5	1.8
C=CC(=O)N1CCC[C@@H](Nc2nc(Nc3cnoc3)nc3[nH]nc(Cl)c23)C1 [Example 59, (R)-1-(3-(3-chloro-6-(isoxazol-4-ylamino)-1H-pyrazolo[3,4-d]pyrimidin-4-ylamino)piperidin-1-yl)prop-2-en-1-one]	1.4	1.8
C=CC(=O)N1CCC[C@@H](Nc2nc(Nc3cnn(CC(=O)NC)c3)nc3[nH]cc(Cl)c23)C1 [Example 60, (R)-2-(4-((4-((1-acryloylpiperidin-3-yl)amino)-5-chloro-7H-pyrrolo[2,3-d]pyrimidin-2-yl)amino)-lH-pyrazol-1-yl)-N-methylacetamide]	0.2	1.7
C=CC(=O)N1CCC[C@@H](Nc2nc(Nc3ccc(N4CCOCC4)cc3)nc3[nH]cc(Cl)c23)C1 [Example 61, (R)-1-(3-((5-chloro-2-((4-morpholinophenyl)amino)-7H-pyrrolo[2,3-d]pyrimidin-4-yl)amino)piperidin-1-yl)prop-2-en-1-one]	1.1	1.7
C=CC(=O)N1CCC[C@@H](Nc2nc(Nc3cnn(C4CC4)c3)nc3[nH]cc(Cl)c23)C1 [Example 62, (R)-1-(3-((5-chloro-2-((1-cyclopropyl-1H-pyrazol-4-yl)amino)-7H-pyrrolo[2,3-d]pyrimidin-4-yl)amino)piperidin-1-yl)prop-2-en-1-one]	0.2	1.7
C=CC(=O)N1CCC[C@@H](Nc2nc(Nc3cnn(CC(C)C)c3)nc3[nH]cc(Cl)c23)C1 [Example 63, (R)-1-(3-((5-chloro-2-((1-isobutyl-1H-pyrazol-4-yl)amino)-7H-pyrrolo[2,3-d]pyrimidin-4-yl)amino)piperidin-1-yl)prop-2-en-1-one]	0.3	1.7
C=CC(=O)N1CCC[C@@H](Nc2nc(Nc3cnn(C(F)F)c3)nc3[nH]nc(Cl)c23)C1 [Example 64, (R)-1-(3-((3-chloro-6-((1-(difluoromethyl)-1H-pyrazol-4-yl)amino)-1H-pyrazolo[3,4-d]pyrimidin-4-yl)amino)piperidin-1-yl)prop-2-en-1-one]	0.7	1.7
C=CC(=O)N1CCC[C@@H](Nc2nc(Nc3cnn(CC(C)C)c3)nc3[nH]ncc23)C1 [Example 65, (R)-1-(3-((6-((1-isobutyl-1H-pyrazol-4-yl)amino)-1H-pyrazolo[3,4-d]pyrimidin-4-yl)amino)piperidin-1-yl)prop-2-en-1-one]	5.5	1.7
C=CC(=O)N1CCC[C@@H](Nc2nc(Nc3cnn(C(C)(C)C)c3)nc3[nH]ncc23)C1 [Example 66, (R)-1-(3-((6-((1-(tert-butyl)-1H-pyrazol-4-yl)amino)-1H-pyrazolo [3,4-d]pyrimidin-4-yl)amino)piperidin-1-yl)prop-2-en-1-one]	3.7	1.7
C=CC(=O)N1CCC[C@@H](Nc2nc(Nc3cnn(C4CC4)c3)nc3[nH]ncc23)C1 [Example 67, (R)-1-(3-((6-((1-cyclopropyl-1H-pyrazol-4-yl)amino)-1H-pyrazolo [3,4-d]pyrimidin-4-yl)amino)piperidin-1-yl)prop-2-en-1-one]	5.7	1.7
C=CC(=O)N1CCC[C@@H](Nc2nc(Nc3ccc(C(=O)N4CCOCC4)cc3)nc3[nH]cc(Cl)c23)C1 [Example 68, (R)-1-(3-((5-chloro-2-((4-(morpholine-4-carbonyl)phenyl)amino)-7H-pyrrolo[2,3-d]pyrimidin-4-yl)amino)piperidin-1-yl)prop-2-en-1-one]	0.7	12.1
C=CC(=O)N1CCC[C@@H](Nc2nc(Nc3cnn(C)c3)nc3[nH]cc(Cl)c23)C1 [Example 69, (R)-1-(3-((5-chloro-2-((1-methyl-1H-pyrazol-4-yl)amino)-7H-pyrrolo[2,3-d]pyrimidin-4-yl)amino)piperidin-1-yl)prop-2-en-1-one]	0.3	8.6
C=CC(=O)N1CCC[C@@H](Nc2nc(Nc3cnn(C(C)(C)C)c3)nc3[nH]cc(Cl)c23)C1 [Example 70, (R)-1-(3-((2-((1-(tert-butyl)-1H-pyrazol-4-yl)amino)-5-chloro-7H-pyrrolo[2,3-d]pyrimidin-4-yl)amino)piperidin-1-yl)prop-2-en-1-one]	0.2	2.3
C=CC(=O)N1CCC[C@@H](Nc2nc(Nc3cnn(C4CCOCC4)c3)nc3[nH]ncc23)C1 [Example 71, (R)-1-(3-((6-((1-(tetrahydro-2H-pyran-4-yl)-1H-pyrazol-4-yl)amino)-1H-pyrazolo[3,4-d]pyrimidin-4-yl)amino)piperidin-1-yl)prop-2-en-1-one]	2.8	1.3
C=CC(=O)N1CCC[C@@H](Nc2nc(Nc3cnn(CCN4CCOCC4)c3)nc3[nH]ncc23)C1 [Example 72, (R)-1-(3-((6-((1-(2-morpholinoethyl)-1H-pyrazol-4-yl)amino)-1H-pyrazolo[3,4-d]pyrimidin-4-yl)amino)piperidin-1-yl)prop-2-en-1-one]	2.2	1.1
C=CC(=O)N1CCC[C@@H](Nc2nc(Nc3cnn(CCC)c3)nc3[nH]ncc23)C1 [Example 73, (R)-1-(3-((6-((1-propyl-1H-pyrazol-4-yl)amino)-1H-pyrazolo[3,4-d]pyrimidin-4-yl)amino)piperidin-1-yl)prop-2-en-1-one]	4.4	1.1
C=CC(=O)N1CCC[C@@H](Nc2nc(Nc3cnn(CCOC)c3)nc3[nH]ncc23)C1 [Example 74, (R)-1-(3-((6-((1-(2-methoayethyl)-1H-pyrazol-4-yl)amino)-1H-pyrazolo[3,4-d]pyrimidin-4-yl)amino)piperidin-1-yl)prop-2-en-1-one]	5.4	1.7
C=CC(=O)N1CCC[C@@H](Nc2nc(Nc3cc(C)ns3)nc3[nH]ccc23)C1 [Example 75, (R)-1-(3-((2-((3-methylisothiazol-5-yl)amino)-7H-pyrrolo[2,3-d]pyrimidin-4-yl)amino)piperidin-1-yl)prop-2-en-1-one]	0.2	4.1
C=CC(=O)N1CC[C@@H](F)[C@@H](Nc2nc(Nc3cnn(CC)c3)nc3[nH]ccc23)C1 [Example 76, 1-((3S,4R)-3-((2-((1-ethyl-1H-pyrazol-4-yl)amino)-7H-pyrrolo[2,3-d]pyrimidin-4-yl)amino)-4-fluoropiperidin-1-yl)prop-2-en-1-one]	0.3	1
